Source: publication PMC4645461 (Peptides, 2015)
Entries after “also recorded” stand apart in the source; their conditions may differ.

Key:
[1] = cited from earlier work
rat GLP-1 receptor = target: T1, rat GLP-1 receptor (Rattus norvegicus, UniProt P32301); experiment: cAMP accumulation, CHL cells over-expressing the rat GLP-1 receptor; format: cell-based; details: analogue average EC50/average GLP-1 EC50; below 1 enhanced efficacy, above 1 decreased efficacy vs native peptide
T1 construct: host or cells: CHL (Chinese hamster lung)
T1 sequence (P32301 22-463): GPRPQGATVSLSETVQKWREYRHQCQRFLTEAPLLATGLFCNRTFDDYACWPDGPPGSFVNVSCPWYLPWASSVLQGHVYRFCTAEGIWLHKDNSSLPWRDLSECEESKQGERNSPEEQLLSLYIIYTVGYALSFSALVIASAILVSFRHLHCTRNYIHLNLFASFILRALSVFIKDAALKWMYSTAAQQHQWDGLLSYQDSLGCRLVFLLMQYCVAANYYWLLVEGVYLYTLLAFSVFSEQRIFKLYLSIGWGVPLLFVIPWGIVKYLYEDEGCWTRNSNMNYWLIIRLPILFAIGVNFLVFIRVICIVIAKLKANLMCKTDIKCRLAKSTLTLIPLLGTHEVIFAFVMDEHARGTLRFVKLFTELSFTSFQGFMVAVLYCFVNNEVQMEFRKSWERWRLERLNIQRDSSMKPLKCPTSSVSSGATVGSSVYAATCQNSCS
Experimental: (§1) For cAMP studies, cells were seeded at a density of 150000 cells/ml in a 48 well plate (Nunc, VWR International Inc., Chicago, USA) and incubated for 24 h. Cells were serum starved for 1 h and then incubated for 30 mins at room temperature with a range of peptide concentrations diluted in serum free DMEM (Sigma–Aldrich, Dorset, UK) in the presence of 1 mM IBMX (3-isobutyl-1-methylxanthine, Sigma–Aldrich). […] EC50’s were calculated using Prism v5 (GraphPad Software Inc., San Diego, CA, USA). Concentrations were applied in duplicate or triplicate per experiment and each experiment repeated a minimum of 3 times.
(§2) All food and bodyweight data are presented as mean ± SEM. […] Differences in 0–7 days cumulative food intake and bodyweight data were analysed using one way ANOVA and post hoc tests with Dunnett’s or Bonferroni corrections for multiple comparisons (Prism v5, GraphPad Software Inc. San Diego, CA, USA). cAMP EC50’s were calculated using a sigmoidal dose response curve and non-linear regression (Prism v5). […] In all cases P < 0.05 was considered statistically significant.

rat glucagon receptor = target: T2, rat glucagon receptor (Rattus norvegicus, UniProt P30082); experiment: cAMP accumulation, CHO-K1 cells over-expressing the rat glucagon receptor; format: cell-based; details: rat glucagon receptor vs rat GLP-1 receptor
T2 construct: host or cells: CHO-K1
T2 sequence (P30082 27-485): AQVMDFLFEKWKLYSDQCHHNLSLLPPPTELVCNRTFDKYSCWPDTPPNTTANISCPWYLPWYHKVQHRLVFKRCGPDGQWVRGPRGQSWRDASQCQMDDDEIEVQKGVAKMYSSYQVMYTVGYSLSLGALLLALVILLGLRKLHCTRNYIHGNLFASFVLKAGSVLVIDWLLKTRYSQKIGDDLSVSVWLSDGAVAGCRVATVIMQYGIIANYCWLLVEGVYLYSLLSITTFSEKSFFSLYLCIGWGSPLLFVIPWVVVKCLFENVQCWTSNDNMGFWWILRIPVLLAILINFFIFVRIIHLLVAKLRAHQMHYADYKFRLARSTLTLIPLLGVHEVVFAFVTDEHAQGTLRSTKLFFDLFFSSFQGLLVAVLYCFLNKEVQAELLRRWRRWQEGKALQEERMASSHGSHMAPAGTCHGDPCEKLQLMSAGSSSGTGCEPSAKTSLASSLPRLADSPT
Experimental: as §1, §2

[2] = rodents and humans; ref [7],[19],[34],[36],[37]; cited from earlier work
human glucagon receptor = details: compared to native peptides; ref [22],[23],[32]; cited from earlier work
human GLP-1 receptor = details: compared to native peptides; ref [22],[23],[32]; cited from earlier work
[3] = parameters: method as in earlier work; details: native oxyntomodulin and longer lasting dual analogues; rodents ref [6],[9],[10],[23],[26],[31]; humans ref [36],[37]; cited from earlier work
Source text: Additionally, methods of peptide administration differ: some studies infused peptides while others administer ...

Substance: Exendin-4
- weight loss in standard chow fed animals ([1]; ref [33],[38]): weight loss

Substance: GLP-1(7-36NH2)
- EC50 ratio to native peptide, Rat GLP-1r (rat GLP-1 receptor): 1.0 arbitrary units

Substance: oxyntomodulin [OXM]
- preference between rat glucagon and GLP-1 receptors (rat glucagon receptor): greater efficacy at the glucagon receptor than the GLP1 receptor; also recorded: favoured glucagon receptor activity
- weight loss ([1]; peripheral administration, rodents ref [1],[5],[6],[25], humans ref [4],[36],[37]): causes weight loss
- energy expenditure [2]: increase energy expenditure
- activation of human glucagon receptor (human glucagon receptor): reduced efficacy compared to the native peptides
- activation of human GLP-1 receptor (human GLP-1 receptor): reduced efficacy compared to the native peptides
- food intake after repeated peripheral administration [3]: reduction in food intake
